We go through 9 molecules from patent US9895352B2, “Indolinone compounds and uses thereof” (Oncternal Therapeutics, Inc., priority 2014, dated 2018).

Read-outs that look alike come from different tables or passages of the source.

The IC50 is the concentration that inhibits the measured activity by half. The term half-life denotes how long it takes for the measured level to halve.

For series [1], the system named is SKES cells (Ewing Sarcoma cell line). As to the kind of experiment: CCK-8 tetrazolium tumor cell growth inhibition, SKES. The class given is cell-based. As to conditions: Homo sapiens. As for the experimental part: A modified tetrazolium salt assay using the CCK-8 kit (Sigma-Aldrich; St Louis, Mo.) was used to measure the inhibition of human tumor cell growth. Tumor cells (5000-7500 per well) were added to 96 well plates and allowed to attach for 4-5 hours. Compounds were serially diluted and added in triplicate at a concentration of 0.02 to 5 μM. DMSO was included as a vehicle control. Cells were incubated in the presence of compound for 3 days. After incubation CCK-8 reagent was added to each well and incubated for 2-4 hours. Viable cells were quantitated spectrophotometrically at a wavelength of 450 nm. Percent viability of each sample was calculated from the A450 values as follows: % viability=(A450 nm sample/A450 nm DMSO-treated cells×100). […] IC50 activities of particular compounds were determined using SKES cells (Ewing Sarcoma cell line).

Series [2] can be described thus: Metabolic stability, half-life and clearance in human liver microsomes. The class given is in vitro ADME. The note with it: for CLhep: hepatic clearance where blood flow = 20 mL/min/kg. The protocol: (§1) Half-life and clearance rates for certain compounds were assayed with human liver microsomes and human hepatocytes. […] At each time point (0, 5, 15, 30, 60, 90 min) the reactions were stopped, vortexed and centrifuged. Supernatents were frozen until LC/MS/MS analysis. The results for human liver microsomes and human hepactocytes are summarized in TABLE 9, and TABLE 10, respectively. Certain compounds were assayed with human liver microsomes (HLM) and human hepatocytes, and metabolites were detected. Briefly, metabolic stability was tested at one TA concentration (e.g., 1 μM) in duplicate. […] Incubations were saved and used for metabolite identification using LC/MS/MS. […] The slope of the linear regression from log percentage remaining versus incubation time relationships (−k) was determined by linear regression fitting. From the individual log percentage remaining time profiles, the mean half-life and intrinsic clearance were reported. UHPLC-HRMS or UHPLC-MS/MS experiment was performed on the authentic test articles to check for possible common fragment ions. […] The metabolites were summarized based on their mass spectrometry peak areas.
A general note: Liver microsomes are a subcellular fraction often used to study metabolism.

Series [3] in a line: Metabolic stability, half-life and clearance in human hepatocytes. The class given is in vitro ADME. As to conditions: for % remaining / half-life: Human hepatocytes; for CLhep: human hepatocytes, hepatic clearance where blood flow = 20 mL/min/kg. As for the experimental part: as §1
Series [4] can be described thus: Half-life in mouse hepatocytes. The class given is in vitro ADME. As to conditions: read-out: Half life of cmpds. The protocol: (§2) In another study, metabolism of compounds in hepatocytes from various species was examined. Hepatocytes were contacted with a compound, and the half-life of the compound was determined.
Series [5] in a line: Half-life in rat hepatocytes. The class given is in vitro ADME. As to conditions: for half-life: read-out: Half life of cmpds. As for the experimental part:
as §2

Series [6] is described as follows: Half-life in dog hepatocytes. The class given is in vitro ADME. The note with it: for half-life: read-out: Half life of cmpds. The protocol:
as §2

A short description of series [7]: Half-life in human hepatocytes. The note with it: read-out: Half life of cmpds. The class given is in vitro ADME. As for the experimental part:
as §2

Assay in series [8]: not given
This is another data set of the same source.

Assay in series [9]: not given
This is another data set of the same source.

Assay in series [10]: not given
This is another data set of the same source.

A short description of series [11]: in vitro. As to conditions: rat, liver microsomes.
Series [12] in a line: in vitro. As to conditions: mouse.
Setting [13] is: 72 h, SKES cells, 3 days with compound, CCK-8 (TABLE 3).
Setting [14] is: human liver microsome, no cofactor, 60 min.
The mark [15] stands for this setting: rat liver microsome, no cofactor, 60 min.
The mark [16] stands for this setting: mouse liver microsome, no cofactor, 60 min.
Where [17] appears, read: dog liver microsome, no cofactor, 60 min.

`COc1ccc(C(=O)CC2(O)C(=O)Nc3c(Cl)ccc(Cl)c32)cc1` (racemic) [Cmpd 1, 4,7-Dichloro-3-hydroxy-3-[2-(4-methoxyphenyl-2-oxoethyl)]-1,3-dihydroindol-2-one]: in series [1] (setting [13]), the half-inhibitory concentration (IC50) is less than 5 µM. Also, the figures for the “% remaining” value in [2] and in series [3] were 5% and 48%, respectively. Moreover, the half-life in [2] is 10.3 min; in series [3], 226 min; in [4] it was 30.9 min; in series [5] it was 14.2 min; in series [6] it was 16.7 min; in series [7], 45.5 min. Besides, the CLhep in [2] amounted to 17.28 mL/min/kg; in [3], 8.7 mL/min/kg.

`CNc1ccc(C(=O)CC2(O)C(=O)Nc3c(Cl)ccc(Cl)c32)cc1` (racemic) [Cmpd 7, 4,7-dichloro-3-hydroxy-3-[2-[4-(methylamino)phenyl]-2-oxoethyl]-1H-indol-2-one]: in series [2], the “% remaining” value came to 49%, the half-life is greater than 45 min and the CLhep was roughly 11.54 mL/min/kg. Also, in series [3], the “% remaining” value was 100%, the half-life is greater than 240 min and the CLhep is less than 8.7 mL/min/kg.

Turning to `O=C(CC1(O)C(=O)Nc2c(Cl)ccc(Cl)c21)c1ccc(C2CC2)cc1` (single isomer, unassigned) [Cmpd 13, 4,7-Dichloro-3-(2-(4-cyclopropylphenyl)-2-oxoethyl)-3-hydroxyindolin-2-one], the IC50 in series [1] (setting [13]) is greater than 5 µM; in series [1] (SKES, ES, EWS-FLI1 Type 2), greater than 5 µM. Further, the “Remaining (NCF = 60 min)” value under setting [14] is on record as 105.1%, the “Remaining (NCF = 60 min)” value in [8] (setting [15]) worked out at 97.0%, the “Remaining (NCF = 60 min)” value in series [9] (setting [16]) is on record as 85.6% and the “Remaining (NCF = 60 min)” value in [10] (setting [17]) came to 98.4%.

Regarding `O=C(CC1(O)C(=O)Nc2c(Cl)ccc(Cl)c21)c1ccc(C2CC2)c(F)c1` (single isomer, unassigned) [Cmpd 37, 4,7-Dichloro-3-(2-(4-cyclopropyl-3-fluorophenyl)-2-oxoethyl)-3-hydroxyindolin-2-one], under setting [14], the “Remaining (NCF = 60 min)” value worked out at 103.4%. The half-life was found to be 3.5 min in “in vitro [11]” and 20.7 min in the series “in vitro [12]” (liver microsomes).

As for `O=C(CC1(O)C(=O)Nc2c(Cl)ccc(Cl)c21)c1ccc(C2CC2)cc1F` (single isomer, unassigned) [Cmpd 39, 4,7-Dichloro-3-(2-(4-cyclopropyl-2-fluorophenyl)-2-oxoethyl)-3-hydroxyindolin-2-one], the “Remaining (NCF = 60 min)” value under setting [14] is recorded as 100.0%. Besides, the half-life in the series “in vitro [11]” was found to be 3 min.

In the case of `CCOc1ccc2ccc(=O)oc2c1` [7-Ethoxycoumarin, reference compound], the half-life in [4] stood at 37.9 min; in series [5], 38.2 min; in series [7], 45.3 min. For the same molecule, the “Half life of cmpds” value in series [6] is recorded as 9.14 min.

As to `O=c1ccc2ccc(O)cc2o1` [7-Hydroxycoumarin, reference compound], the half-life in [4] was 15.8 min; in series [6], 9.38 min; in series [7], 20.8 min. Moreover, in [5], the “Half life of cmpds” value stood at 12.41 min.

On to `O=C(O)Cc1ccccc1Nc1c(Cl)cccc1Cl` [Diclofenac, reference compound], for which the “Remaining (NCF = 60 min)” value (human, microsomes, 1 h) came out at 77.8%; the “Remaining (NCF = 60 min)” value in [8] (rat, microsomes, 1 h) is reported as 94.1%; the “Remaining (NCF = 60 min)” value in [9] (mouse, microsomes, 1 h) is 88.1%; the “Remaining (NCF = 60 min)” value in [10] (dog, microsomes, 1 h) was found to be 89.6%. The molecule further showed a half-life in “in vitro [12]” (microsomes) of 39.2 min.

Turning to `C[C@]12CC[C@H]3[C@@H](CCC4=CC(=O)CC[C@@]43C)[C@@H]1CC[C@@H]2O` [Testosterone, reference compound], the “Remaining (NCF = 60 min)” value under setting [14] was found to be 88.1%, the “Remaining (NCF = 60 min)” value in series [8] (setting [15]) was 87.3%, the “Remaining (NCF = 60 min)” value in series [9] (setting [16]) was 83.6% and the “Remaining (NCF = 60 min)” value in series [10] (setting [17]) came out at 91.0%. This molecule showed a half-life in the series “in vitro [12]” (microsomes) of 3.3 min.
